Patent US6627734B1 (dated 2003)

Tested on: expressed full length clones containing these insertions (KOR-3a, KOR-3b, KOR-3c)
Test: Preliminary binding of [3H]naloxone benzoylhydrazone to expressed full length KOR-3 splice variant clones
Parameters: species or system mouse
Conditions: preliminary studies; expressed full length clones with mini-exon insertions (KOR-3a, KOR-3b, KOR-3c); radioligand

C=CCN1CC[C@]23c4c5ccc(O)c4O[C@H]2/C(=N/NC(=O)c2ccccc2)CC[C@@]3(O)[C@H]1C5 [[^3H]naloxone benzolhydrazone]
binding of the kappa3 ligand by the expressed full length clones: quite well
